Several values for one entry are separate records, joined by “and”; a condition that tells them apart may be missing. Identical values can stand only once. Numbers after ± are expanded uncertainties.
Test: Henry's Law constant (molality scale); of the first substance listed, at infinite dilution; xn = mol fraction of the nth substance listed
Details: Liquid, Chromatography, x1 = 0

ClCBr [bromochloromethane] + O
Henry's Law constant (274.15 K): 50.8 ± 15 kPa·kg/mol
Henry's Law constant (294.65 K): 121 kPa·kg/mol and 123 kPa·kg/mol
Henry's Law constant (296.15 K): 126 ± 38 kPa·kg/mol
Henry's Law constant (310.15 K): 259 ± 78 kPa·kg/mol
Henry's Law constant (320.15 K): 479 ± 140 kPa·kg/mol
Henry's Law constant (331.15 K): 795 ± 240 kPa·kg/mol

ClC(Cl)Cl [trichloromethane] + O
Henry's Law constant (274.15 K): 107 ± 32 kPa·kg/mol
Henry's Law constant (294.65 K): 301 kPa·kg/mol and 324 kPa·kg/mol
Henry's Law constant (296.15 K): 363 ± 110 kPa·kg/mol
Henry's Law constant (310.15 K): 782 ± 230 kPa·kg/mol
Henry's Law constant (313.15 K): 628 ± 190 kPa·kg/mol
Henry's Law constant (326.15 K): 1170 ± 350 kPa·kg/mol
Henry's Law constant (331.15 K): 1770 ± 530 kPa·kg/mol

Cc1cc(C)cc(C)c1 [1,3,5-trimethylbenzene] + O
Henry's Law constant (274.15 K): 115 ± 46 kPa·kg/mol
Henry's Law constant (294.65 K): 304 kPa·kg/mol and 352 kPa·kg/mol
Henry's Law constant (296.15 K): 408 ± 160 kPa·kg/mol
Henry's Law constant (310.15 K): 719 ± 290 kPa·kg/mol
Henry's Law constant (313.15 K): 1330 ± 530 kPa·kg/mol
Henry's Law constant (326.15 K): 2360 ± 940 kPa·kg/mol
Henry's Law constant (331.15 K): 1830 ± 730 kPa·kg/mol

COC(C)(C)C [2-methoxy-2-methylpropane] + O
Henry's Law constant (274.15 K): 5.5 kPa·kg/mol
Henry's Law constant (296.15 K): 58 kPa·kg/mol
Henry's Law constant (310.15 K): 59 kPa·kg/mol
Henry's Law constant (320.15 K): 368 kPa·kg/mol
Henry's Law constant (331.15 K): 1650 kPa·kg/mol

S=C=S [carbon disulfide] + O
Henry's Law constant (274.15 K): 682 ± 200 kPa·kg/mol
Henry's Law constant (313.15 K): 2930 ± 880 kPa·kg/mol
Henry's Law constant (326.15 K): 5690 ± 1700 kPa·kg/mol

C=CCCl [3-chloro-1-propene] + O
Henry's Law constant (274.15 K): 255 ± 76 kPa·kg/mol
Henry's Law constant (313.15 K): 1350 ± 410 kPa·kg/mol
Henry's Law constant (326.15 K): 3170 ± 950 kPa·kg/mol

CC(C)=O [acetone] + O
Henry's Law constant (274.15 K): 0.231 ± 0.092 kPa·kg/mol
Henry's Law constant (294.65 K): 1.44 kPa·kg/mol and 1.26 kPa·kg/mol
Henry's Law constant (296.15 K): 1.13 ± 0.45 kPa·kg/mol
Henry's Law constant (310.15 K): 7.55 ± 3 kPa·kg/mol
Henry's Law constant (320.15 K): 11.5 ± 4.6 kPa·kg/mol
Henry's Law constant (331.15 K): 16 ± 6.4 kPa·kg/mol
Henry's Law constant (333.15 K): 41.1 ± 16 kPa·kg/mol

C=C(C)C#N [isopropenylnitrile] + O
Henry's Law constant (274.15 K): 2.92 ± 1.2 kPa·kg/mol
Henry's Law constant (294.65 K): 14.7 kPa·kg/mol and 16.8 kPa·kg/mol
Henry's Law constant (296.15 K): 16.7 ± 6.7 kPa·kg/mol
Henry's Law constant (310.15 K): 50.9 ± 20 kPa·kg/mol
Henry's Law constant (320.15 K): 68.5 ± 27 kPa·kg/mol
Henry's Law constant (331.15 K): 147 ± 59 kPa·kg/mol
Henry's Law constant (333.15 K): 261 ± 100 kPa·kg/mol

ClC/C=C\CCl [cis-1,4-dichloro-2-butene] + O
Henry's Law constant (274.15 K): 3.03 kPa·kg/mol
Henry's Law constant (296.15 K): 31.9 kPa·kg/mol
Henry's Law constant (310.15 K): 102 kPa·kg/mol
Henry's Law constant (320.15 K): 182 kPa·kg/mol
Henry's Law constant (326.15 K): 1380 kPa·kg/mol
Henry's Law constant (331.15 K): 492 kPa·kg/mol

CC#N [acetonitrile] + O
Henry's Law constant (274.15 K): 0.21 ± 0.084 kPa·kg/mol
Henry's Law constant (294.65 K): 1.41 kPa·kg/mol and 1.55 kPa·kg/mol
Henry's Law constant (296.15 K): 1.7 ± 0.68 kPa·kg/mol
Henry's Law constant (310.15 K): 5.36 ± 2.1 kPa·kg/mol
Henry's Law constant (320.15 K): 12.6 ± 5.1 kPa·kg/mol
Henry's Law constant (331.15 K): 6.17 kPa·kg/mol

Clc1cccc(Cl)c1Cl [1,2,3-trichlorobenzene] + O
Henry's Law constant (274.15 K): 17.8 ± 5.3 kPa·kg/mol
Henry's Law constant (294.65 K): 56.4 kPa·kg/mol and 54.8 kPa·kg/mol
Henry's Law constant (296.15 K): 63 ± 19 kPa·kg/mol
Henry's Law constant (310.15 K): 124 ± 37 kPa·kg/mol
Henry's Law constant (320.15 K): 199 ± 60 kPa·kg/mol
Henry's Law constant (331.15 K): 324 ± 97 kPa·kg/mol

CC(C)(Cl)Cl [2,2-dichloropropane] + O
Henry's Law constant (274.15 K): 423 ± 170 kPa·kg/mol
Henry's Law constant (313.15 K): 3280 ± 1300 kPa·kg/mol
Henry's Law constant (326.15 K): 36600 ± 15000 kPa·kg/mol

CC(C)O [propan-2-ol] + O
Henry's Law constant (273.25 K): 0.088 kPa·kg/mol
Henry's Law constant (298.15 K): 2.14 kPa·kg/mol
Henry's Law constant (311.15 K): 1.19 kPa·kg/mol
Henry's Law constant (332.15 K): 22.9 kPa·kg/mol

COC(C)=O [methyl ethanoate] + O
Henry's Law constant (274.15 K): 1.06 ± 0.42 kPa·kg/mol
Henry's Law constant (294.65 K): 5.33 kPa·kg/mol and 7.39 kPa·kg/mol
Henry's Law constant (296.15 K): 7.53 ± 3 kPa·kg/mol
Henry's Law constant (310.15 K): 34.1 ± 14 kPa·kg/mol
Henry's Law constant (320.15 K): 52.4 ± 21 kPa·kg/mol
Henry's Law constant (331.15 K): 83.1 ± 33 kPa·kg/mol
Henry's Law constant (333.15 K): 125 ± 50 kPa·kg/mol

CC(=O)c1ccccc1 [acetophenone] + O
Henry's Law constant (274.15 K): 0.128 ± 0.039 kPa·kg/mol
Henry's Law constant (294.65 K): 0.881 kPa·kg/mol and 0.738 kPa·kg/mol
Henry's Law constant (296.15 K): 1.6 ± 0.48 kPa·kg/mol
Henry's Law constant (310.15 K): 2.48 ± 0.75 kPa·kg/mol
Henry's Law constant (320.15 K): 4.6 ± 1.4 kPa·kg/mol
Henry's Law constant (331.15 K): 8.87 ± 2.7 kPa·kg/mol

CBr [bromomethane] + O
Henry's Law constant (274.15 K): 399 ± 120 kPa·kg/mol
Henry's Law constant (313.15 K): 1120 ± 340 kPa·kg/mol
Henry's Law constant (326.15 K): 1920 ± 580 kPa·kg/mol

Brc1ccccc1 [bromobenzene] + O
Henry's Law constant (274.15 K): 56.1 ± 17 kPa·kg/mol
Henry's Law constant (294.65 K): 138 kPa·kg/mol and 147 kPa·kg/mol
Henry's Law constant (296.15 K): 161 ± 48 kPa·kg/mol
Henry's Law constant (310.15 K): 273 ± 82 kPa·kg/mol
Henry's Law constant (320.15 K): 470 ± 140 kPa·kg/mol
Henry's Law constant (331.15 K): 708 ± 210 kPa·kg/mol

C1CCCCC1 [cyclohexane] + O
Henry's Law constant (274.15 K): 1010 ± 300 kPa·kg/mol
Henry's Law constant (294.65 K): 2250 kPa·kg/mol
Henry's Law constant (296.15 K): 2250 ± 670 kPa·kg/mol
Henry's Law constant (313.15 K): 9460 ± 2800 kPa·kg/mol
Henry's Law constant (326.15 K): 15700 ± 4700 kPa·kg/mol

Cc1ccc(Cl)cc1 [4-chlorotoluene] + O
Henry's Law constant (274.15 K): 85.6 kPa·kg/mol
Henry's Law constant (296.15 K): 232 kPa·kg/mol
Henry's Law constant (310.15 K): 224 kPa·kg/mol
Henry's Law constant (313.15 K): 591 kPa·kg/mol
Henry's Law constant (326.15 K): 1240 kPa·kg/mol
Henry's Law constant (331.15 K): 888 kPa·kg/mol

ClC(Cl)=C(Cl)C(Cl)=C(Cl)Cl [1,1,2,3,4,4-hexachloro-1,3-butadiene] + O
Henry's Law constant (274.15 K): 145 kPa·kg/mol
Henry's Law constant (296.15 K): 287 kPa·kg/mol
Henry's Law constant (310.15 K): 366 kPa·kg/mol
Henry's Law constant (313.15 K): 2180 kPa·kg/mol
Henry's Law constant (326.15 K): 3830 kPa·kg/mol

ClCc1ccccc1 [(chloromethyl)benzene] + O
Henry's Law constant (273.25 K): 7.81 ± 2.3 kPa·kg/mol
Henry's Law constant (298.15 K): 50.6 ± 15 kPa·kg/mol
Henry's Law constant (311.15 K): 139 ± 42 kPa·kg/mol

FC(F)(Cl)Cl [dichlorodifluoromethane] + O
Henry's Law constant (274.15 K): 1660 ± 500 kPa·kg/mol
Henry's Law constant (313.15 K): 40000 ± 12000 kPa·kg/mol
Henry's Law constant (326.15 K): 22600 ± 6800 kPa·kg/mol

From the NIST ThermoML archive (doi:10.1021/je3010535)
